What all share (assay type): functional, Thorax
The subject of assay [1] is Thoracic. Briefly: Vasorelaxation activity against phenylephrine-stimulated contraction in rat thoracic tissue at 10 uM. The arrangement: scale not given: the % may be the effect or the level left.
In assay [2] the test system is Thoracic. As to the kind of experiment: Vasorelaxation activity against phenylephrine-stimulated contraction in rat thoracic tissue at 40 uM. The arrangement: scale not given: the % may be the effect or the level left.
Assay [3] relates to Thoracic. Briefly: Vasorelaxation activity against phenylephrine-stimulated contraction in rat thoracic tissue assessed as time taken for relaxation at 10 uM.
Assay [4] relates to Thoracic. Briefly: Vasorelaxation activity against phenylephrine-stimulated contraction in rat thoracic tissue assessed as time taken for relaxation at 40 uM.
The subject of assay [5] is Thoracic. As to the kind of experiment: Vasorelaxation activity against phenylephrine-stimulated contraction in rat thoracic tissue at 20 uM in presence of glibenclamide. On the set-up: scale not given: the % may be the effect or the level left.
Assay [6] relates to Thoracic. As to the kind of experiment: Vasorelaxation activity against phenylephrine-stimulated contraction in rat thoracic tissue at 1 uM. The arrangement: scale not given: the % may be the effect or the level left.

On to `CC(C)(F)[C@@H]1COc2ccc([N+](=O)[O-])cc2C1C#Cc1ccccc1` (single isomer, unassigned), for which the Activity was determined as 43% in assay [1], 88% in assay [2] and 30% in assay [5]. Moreover, the Time in assay [3] was 40 min; in assay [4] it was 30 min.
As for `CC(C)(F)[C@@H]1COc2c(F)cc(F)cc2C1C#Cc1ccccc1` (single isomer, unassigned), the Activity in assay [1] was 20%; in assay [2] it was 65%. Moreover, the Time is given as 41 min in assay [3] and 24 min in assay [4].
With `CC(C)(F)[C@@H]1COc2c(F)cccc2C1C#Cc1ccccc1` (single isomer, unassigned), the figures for the Activity in assay [1], in assay [2] and in assay [5] were 28%, 92% and 30%, respectively. In addition, the Time worked out at 43 min in assay [3] and 21 min in assay [4].
Consider `CC1(C)Oc2ccc(C#N)cc2[C@@H](N2CCCC2=O)[C@@H]1O` [CROMAKALIM], for which the Activity in assay [6] turned out to be 56%; in assay [1], 72%.
With `CC(C)(F)[C@@H]1COc2ccc(F)cc2C1C#Cc1ccccc1` (single isomer, unassigned), the figures for the Activity in assay [1], in assay [2] and in assay [5] were 36%, 83% and 44%, respectively. The Time in assay [3] is 55 min; in assay [4] it was 33 min.

The record behind these values is ChEMBL document CHEMBL1143191, “The synthesis and biological evaluation of a range of novel functionalized benzopyrans as potential potassium channel activators” (2008).
